Tests used:
interleukin-6 (IL-6) = test: TNF-α/IFN-induced interleukin-6 in HaCaT keratinocytes (ELISA); format: cell-based, human; details: HaCaT cells, 0, 1, 2, 4 and 8 µg/mL, TNF-α and IFN 50 ng/mL each, 24 h
Experimental: Furthermore, human keratinocyte HaCaT cells (obtained from the Korean Cell Line Bank) were seeded at an initial density of 2×10^5 cells/well in a 12-well plate and cultured at 37° C. for 16 to 24 hours. The compound 27 of the present invention was then added to the HaCaT cell culture medium at final concentrations of 0, 1, 2, 4, and 8 µg/mL and the cells were cultured at 37° C. for 1 hour. Subsequently, to induce interleukin-6, the culture medium was treated with TNF-α (Sigma-Aldrich, USA) and […] (Sigma-Aldrich, USA) to final concentrations of 50 ng/mL each, and the cells were cultured for an additional 24 hours at 37° C. Next, the culture supernatant was collected, and the amount of induced interleukin-6 from HaCaT cells was determined using an ELISA kit (LABIS KOMA, South Korea) according to the manufacturer's instructions.
Human keratinocyte HaCaT cells (obtained from the Korean Cell Line Bank) were seeded in a 12-well plate at an initial density of 2×10^5 cells/well and cultured at 37° C. for 16 to 24 hours. […] The culture supernatant was collected, and the amount of induced interleukin-6 from HaCaT cells was determined using an ELISA kit (LABIS KOMA, South Korea) according to the manufacturer's instructions.

interleukin-13 (IL-13) = test: PMA/ionomycin-induced interleukin-13 in RBL-2H3 cells (ELISA); format: cell-based, rat; details: RBL-2H3 cells, 0, 1, 2, 4 and 8 µg/mL, 24 h
Experimental: RBL-2H3 cells were seeded at an initial density of 2×10^5 cells/well in a 24-well plate and cultured at 37° C. for 16 to 24 hours. Subsequently, compound 27 of the present invention was added to the RBL-2H3 cell culture medium at final concentrations of 0, 1, 2, 4, and 8 µg/mL, and the cells were cultured at 37° C. for 1 hour. Next, to induce interleukin-13, the culture medium was treated with PMA ([…], Sigma-Aldrich, USA) and ionomycin (Sigma-Aldrich, USA) to final concentrations of 50 ng/mL and […], respectively, and the cells were cultured for an additional 24 hours at 37° C. The culture supernatant was then collected, and the amount of induced interleukin-13 from RBL-2H3 cells was determined using an ELISA kit (R&D Systems, USA) according to the manufacturer's instructions. FIG. 2 (b) represents the results. […] This indicates the anti-inflammatory effect of compound 27 of the present invention.

[1] = test system: DNFB-induced atopic dermatitis mice; test: DNFB-induced atopic dermatitis mouse model, itch scratching test; format: in vivo, ICR mice; details: 1˜10 mg/kg, ip, po or topical, daily for one week, 30 min recording, vs control group
Experimental: ICR mice (Supplier: Koatech, Gyeonggi, South Korea, Male, 9 weeks old) were used. After acclimatization to the environment for one week, the mice were divided into treatment and control groups, and then hair was removed from the area (dorsal area) where the drug was applied on day 0, 0.5% DNFB (50 μL) diluted in 99% acetone, was applied to the dorsal area. Subsequently, on days 5, 8, 10 and 14, additional applications of 0.2% DNFB (20 μL) were applied to induce atopic dermatitis. After 7 days of DNFB treatment, once skin lesions were confirmed in all mice, compound 27 of the present invention was administered daily for one week via intraperitoneal (ip), oral (po), or topical (dermal) routes.
For the groups treated with the compound 27 of the present invention (1˜10 mg/kg) and the control group, mice were separated on days 5, 8, 11 and 15, acclimatized for 1 hour, and their scratching behavior patterns were recorded and analyzed for 30 minutes.

skin-specific T cells = test: FACS analysis of T cell fractions in skin tissue isolated from atopic dermatitis patients; format: cell-based, human; details: patient skin tissue, 16 g/mL, 8 g/mL
Description: For tissues isolated from the skin of atopic dermatitis patients (Yonsei Severance Hospital, South Korea) followed by the treatment of the compound 27 of the present invention, T cell fractions were compared, and the results are presented in FIG. 16 (Data are shown as mean standard deviation (SD). ** P<0.01, * P<0.05).

Structure (SMILES): CCC(NC)C(=O)NCc1ccc(OCc2ccc(C(F)(F)F)cc2)cc1 (racemic) [Compound 27, (R)/(S)-2-(methylamino)-N-(4-((4-trifluoromethyl)benzyl)oxy)benzyl)butanamide]
- amount of induced interleukin-6 (interleukin-6 (IL-6)): decreased
- amount of induced interleukin-13 (interleukin-13 (IL-13)): decreased proportionally
- scratching frequency [1]: significantly decreased
- CD69+ T cells and CD103+ T cells (skin-specific T cells): remarkable reduction
- proportion of skin-specific T cells (skin-specific T cells): concentration-dependent significant decrease
